Experimental data taken from PubChem BioAssay AID1259411 (Chemical Carcinogenesis Research Information System (CCRIS), 2018).
Calls of active or inactive are those of the source. No rule for the calls is given here.

Tested on: rodent carcinogenicity bioassays, tumor incidence
Assay: CCRIS carcinogenicity studies
Conditions: Dose: 0, Dose: 0
How it was run: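 Archive of carcinogenicity, mutagenicity, tumor promotion and tumor inhibition results drawn from journals, NCI reports and other sources, expert-reviewed; covers 1985-2011 and is no longer updated.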

SMILES: CS(=O)CC(=O)c1ccccn1 (centres undefined)
- carcinogen call (Species: MOUSE, Strain/Sex: B6C3F1/FEMALE, Route: ORAL, 40, 240, 600 MG/KG IN DIET FOR 80 WK (STUDY DURATION: 80 WK), 40, 240, 600 MG/KG IN DIET FOR 80 WK (STUDY DURATION: 80 WK), Tumor Site: Type of Lesion: LUNG: ALVEOLOGENIC ADENOCARCINOMA): active; positive
- carcinogen call (Species: MOUSE, Strain/Sex: CF1/MALE, Route: ORAL, 40, 240, 600 MG/KG IN DIET FOR 80 WK (STUDY DURATION: 80 WK), 40, 240, 600 MG/KG IN DIET FOR 80 WK (STUDY DURATION: 80 WK)): inactive; negative
- carcinogen call (Species: RAT, Strain/Sex: WISTAR/FEMALE, Route: ORAL, 40, 240, 600 MG/KG IN DIET FOR 104 WK (STUDY DURATION: 104 WK), 40, 240, 600 MG/KG IN DIET FOR 104 WK (STUDY DURATION: 104 WK)): inactive; negative
- carcinogen call (Species: RAT, Strain/Sex: WISTAR/MALE, Route: ORAL, 40, 240, 600 MG/KG IN DIET FOR 104 WK (STUDY DURATION: 104 WK), 40, 240, 600 MG/KG IN DIET FOR 104 WK (STUDY DURATION: 104 WK), Tumor Site: Type of Lesion: LIVER: HEPATOCELLULAR ADENOMA): active; positive

SMILES: Cn1c(CCCC(=O)O)nc2cc(N(CCCl)CCCl)ccc21
- carcinogen call (Species: MOUSE, Strain/Sex: AB/JENA/FEMALE, Route: INTRAPERITONEAL, 12.5, 25 MG/KG IN 2 ML SALINE 1/D FOR 4 D FOR A TOTAL DOSE OF 0, 50, 100 MG/KG, 12.5, 25 MG/KG IN 2 ML SALINE 1/D FOR 4 D FOR A TOTAL DOSE OF 0, 50, 100 MG/KG, Tumor Site: Type of Lesion: PERITONEUM: SARCOMA): active; positive
- carcinogen call (Species: MOUSE, Strain/Sex: AB/JENA/FEMALE, Route: ORAL, 62.5 MG/KG IN 0.25 ML WATER 1/D FOR 4 D FOR A TOTAL DOSE OF 0, 250 MG/KG, 62.5 MG/KG IN 0.25 ML WATER 1/D FOR 4 D FOR A TOTAL DOSE OF 0, 250 MG/KG, Tumor Site: Type of Lesion: LUNG: ADENOMA): active; positive

SMILES: Cc1cc(N=Nc2c(O)ccc3ccccc23)c(S(=O)(=O)O)cc1Cl
- carcinogen call (Species: MOUSE, Strain/Sex: B6C3F1/FEMALE, Route: ORAL, 1000, 2000 PPM IN DIET FOR 103 WK (STUDY DURATION: 103 WK), 1000, 2000 PPM IN DIET FOR 103 WK (STUDY DURATION: 103 WK)): inactive; negative
- carcinogen call (Species: MOUSE, Strain/Sex: B6C3F1/MALE, Route: ORAL, 1000, 2000 PPM IN DIET FOR 103 WK (STUDY DURATION: 103 WK), 1000, 2000 PPM IN DIET FOR 103 WK (STUDY DURATION: 103 WK)): inactive; negative
- carcinogen call (Species: MOUSE, Strain/Sex: ICR/FEMALE, Route: DERMAL, 1 MG IN 0.1 ML DISTILLED WATER 2/WK FOR A MEAN TOTAL DOSE OF 134.7 MG (STUDY DURATION: 18 MO)): inactive; negative
- carcinogen call (Species: MOUSE, Strain/Sex: ICR/MALE, Route: DERMAL, 1 MG IN 0.1 ML DISTILLED WATER 2/WK FOR A MEAN TOTAL DOSE OF 134.7 MG (STUDY DURATION: 18 MO)): inactive; negative
- carcinogen call (Species: RAT, Strain/Sex: F344/FEMALE, Route: ORAL, 1000, 3000 PPM IN DIET FOR 103 WK (STUDY DURATION: 103 WK), 1000, 3000 PPM IN DIET FOR 103 WK (STUDY DURATION: 103 WK), Tumor Site: Type of Lesion: LIVER: NEOPLASTIC NODULE): equivocal
- carcinogen call (Species: RAT, Strain/Sex: F344/FEMALE, Route: ORAL, 1000, 3000 PPM IN DIET FOR 103 WK (STUDY DURATION: 104 WK), 1000, 3000 PPM IN DIET FOR 103 WK (STUDY DURATION: 104 WK)): inactive; negative
- carcinogen call (Species: RAT, Strain/Sex: F344/MALE, Route: ORAL, 1000, 3000 PPM IN DIET FOR 103 WK (STUDY DURATION: 103 WK), 1000, 3000 PPM IN DIET FOR 103 WK (STUDY DURATION: 103 WK), Tumor Site: Type of Lesion: SPLEEN: SARCOMA, LIVER: NEOPLASTIC NODULE): active; positive
- carcinogen call (Species: RAT, Strain/Sex: F344/MALE, Route: ORAL, 1000, 3000 PPM IN DIET FOR 103 WK (STUDY DURATION: 104 WK), 1000, 3000 PPM IN DIET FOR 103 WK (STUDY DURATION: 104 WK), Tumor Site: Type of Lesion: SPLEEN OR PERITONEUM: SARCOMA): active; positive

SMILES: N[C@@H](CC(=O)O)C(=O)O
- carcinogen call (Species: RAT, Strain/Sex: F344/FEMALE, Route: ORAL, 2.5, 5% IN DRINKING WATER FOR 100 WK (STUDY DURATION: 100 WK), 2.5, 5% IN DRINKING WATER FOR 100 WK (STUDY DURATION: 100 WK)): inactive; negative
- carcinogen call (Species: RAT, Strain/Sex: F344/MALE, Route: ORAL, 2.5, 5% IN DRINKING WATER FOR 100 WK (STUDY DURATION: 100 WK), 2.5, 5% IN DRINKING WATER FOR 100 WK (STUDY DURATION: 100 WK)): inactive; negative

SMILES: CNC(=O)ON=CC(C)(C)SC
- carcinogen call (Species: MOUSE, Strain/Sex: B6C3F1/FEMALE, Route: ORAL, 2, 6 PPM IN DIET, 2, 6 PPM IN DIET): inactive; negative
- carcinogen call (Species: MOUSE, Strain/Sex: B6C3F1/MALE, Route: ORAL, 2, 6 PPM IN DIET, 2, 6 PPM IN DIET): inactive; negative
- carcinogen call (Species: RAT, Strain/Sex: F344/FEMALE, Route: ORAL, 2, 6 PPM IN DIET, 2, 6 PPM IN DIET): inactive; negative
- carcinogen call (Species: RAT, Strain/Sex: F344/MALE, Route: ORAL, 2, 6 PPM IN DIET, 2, 6 PPM IN DIET): inactive; negative

SMILES: O=C(c1ccccc1)c1ccccc1
- carcinogen call (Species: Mouse, Strain/Sex: B6C3F1/Female, Route: Oral, 312, 625, 1250 ppm in feed for 105 wks, 312, 625, 1250 ppm in feed for 105 wks, Tumor Site: Type of Lesion: Histiocytic sarcoma: (0/50, 0/50, 5/50, 3/50) Liver: Hepatocellular adenoma (5/50, 4/50, 10/50, 8/50)): active; positive (ntp describes as some evidence); ntp describes results in liver as equ
- carcinogen call (Species: Mouse, Strain/Sex: B6C3F1/Male, Route: Oral, 312, 625, 1250 ppm in feed for 105 wks, 312, 625, 1250 ppm in feed for 105 wks, Tumor Site: Type of Lesion: Liver: Hepatocellular adenoma (11/50, 15/50, 23/50, 23/50), Hepatocellular adenoma, hepatocellular carcinoma, or hepatob): active; positive (ntp describes as some evidence)
- carcinogen call (Species: Rat, Strain/Sex: F344/N/Female, Route: Oral, 312, 625, 1250 ppm in feed for 105 wks, 312, 625, 1250 ppm in feed for 105 wks, Tumor Site: Type of Lesion: Mononuclear cell leukemia: (19/50, 25/50, 30/50, 29/50) Histiocytic sarcoma: (0/50, 0/50, 1/50, 2/50) Mammary gland: fib): equivocal; mononuclear cell leukemia and histiocytic sarcoma incidences describe
- carcinogen call (Species: Rat, Strain/Sex: F344/N/Male, Route: Oral, 312, 625, 1250 ppm in feed for 105 wks, 312, 625, 1250 ppm in feed for 105 wks, Tumor Site: Type of Lesion: Kidney: Renal tubule adenoma (1/50, 1/10, 2/50, 4/50), Mononuclear cell leukemia: (27/50, 41/50, 39/50, 24/50)): active; positive trend for renal tubule adenoma (ntp describes as some evidence); mononu
